Test results taken from patent US10582709B2, “Butyrolactones as herbicides” (FMC Corporation, priority 2015, dated 2020).

How the values were obtained:
Assay type in all cases: in vivo
[1] = test system: wheat (Triticum aestivum); assay: Test A postemergence, wheat; conditions: visual rating after approx. 10 d, 0 to 100 scale, 0 no effect, 100 complete control
Method in brief: (§1)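 Visual injury rating on a 0–100 scale (0 = no effect, 100 = complete control) versus untreated controls, ~10 d after treatment in greenhouse. Preemergence: directed soil spray over seeded loam/sand. Postemergence: foliar spray at one- to two-leaf stage, 2–10 cm tall.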

[2] = test system: barnyardgrass (Echinochloa crus-galli); assay: Test B flooded paddy test, barnyardgrass; conditions: applied to paddy water at 2-leaf stage, 13 to 15 d, scale 0 no effect to 100 complete control
Method in brief: (§2)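 Plants grown to the 2-leaf stage. At treatment, pots were flooded to 3 cm above the soil, compound was applied directly to the paddy water, and that depth was held throughout. After 13 to 15 d in the greenhouse, response was rated visually against controls on a 0 (no effect) to 100 (complete control) scale.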

[3] = test system: pigweed (Amaranthus retroflexus); assay: Test A postemergence, pigweed; conditions: visual rating after approx. 10 d, 0 to 100 scale, 0 no effect, 100 complete control
Method in brief: as §1

[4] = test system: barnyardgrass (Echinochloa crus-galli); assay: Test A preemergence, barnyardgrass; conditions: visual rating after approx. 10 d, 0 to 100 scale, 0 no effect, 100 complete control
Method in brief: as §1

[5] = test system: blackgrass (Alopecurus myosuroides); assay: Test A postemergence, blackgrass; conditions: visual rating after approx. 10 d, 0 to 100 scale, 0 no effect, 100 complete control
Method in brief: as §1

[6] = test system: pigweed (Amaranthus retroflexus); assay: Test A preemergence, pigweed; conditions: visual rating after approx. 10 d, 0 to 100 scale, 0 no effect, 100 complete control
Method in brief: as §1

[7] = test system: ragweed (common ragweed, Ambrosia elatior); assay: Test A preemergence, ragweed; conditions: visual rating after approx. 10 d, 0 to 100 scale, 0 no effect, 100 complete control
Method in brief: as §1

[8] = test system: ducksalad (Heteranthera limosa); assay: Test B flooded paddy test, ducksalad; conditions: applied to paddy water at 2-leaf stage, 13 to 15 d, scale 0 no effect to 100 complete control
Method in brief: as §2

kochia (Kochia scoparia) [9] = assay: Test A preemergence, kochia; conditions: visual rating after approx. 10 d, 0 to 100 scale, 0 no effect, 100 complete control
Method in brief: as §1

[10] = test system: ryegrass, Italian (Italian ryegrass, Lolium multiflorum); assay: Test A postemergence, Italian ryegrass; conditions: visual rating after approx. 10 d, 0 to 100 scale, 0 no effect, 100 complete control
Method in brief: as §1

kochia (Kochia scoparia) [11] = assay: Test A postemergence, kochia; conditions: visual rating after approx. 10 d, 0 to 100 scale, 0 no effect, 100 complete control
Method in brief: as §1

[12] = test system: sedge, umbrella (small-flower umbrella sedge, Cyperus difformis); assay: Test B flooded paddy test, umbrella sedge; conditions: applied to paddy water at 2-leaf stage, 13 to 15 d, scale 0 no effect to 100 complete control
Method in brief: as §2

rice (Oryza sativa) = assay: Test B flooded paddy test, rice; conditions: applied to paddy water at 2-leaf stage, 13 to 15 d, scale 0 no effect to 100 complete control
Method in brief: as §2

[13] = test system: ragweed (common ragweed, Ambrosia elatior); assay: Test A postemergence, ragweed; conditions: visual rating after approx. 10 d, 0 to 100 scale, 0 no effect, 100 complete control
Method in brief: as §1

[14] = test system: galium (catchweed bedstraw, Galium aparine); assay: Test A postemergence, galium; conditions: visual rating after approx. 10 d, 0 to 100 scale, 0 no effect, 100 complete control
Method in brief: as §1

[15] = test system: barnyardgrass (Echinochloa crus-galli); assay: Test A postemergence, barnyardgrass; conditions: visual rating after approx. 10 d, 0 to 100 scale, 0 no effect, 100 complete control
Method in brief: as §1

[16] = test system: ryegrass, Italian (Italian ryegrass, Lolium multiflorum); assay: Test A preemergence, Italian ryegrass; conditions: visual rating after approx. 10 d, 0 to 100 scale, 0 no effect, 100 complete control
Method in brief: as §1

[17] = test system: foxtail, giant (giant foxtail, Setaria faberii); assay: Test A postemergence, giant foxtail; conditions: visual rating after approx. 10 d, 0 to 100 scale, 0 no effect, 100 complete control
Method in brief: as §1

[18] = test system: foxtail, giant (giant foxtail, Setaria faberii); assay: Test A preemergence, giant foxtail; conditions: visual rating after approx. 10 d, 0 to 100 scale, 0 no effect, 100 complete control
Method in brief: as §1

corn (Zea mays) = assay: Test A postemergence, corn; conditions: visual rating after approx. 10 d, 0 to 100 scale, 0 no effect, 100 complete control
Method in brief: as §1

O=C(Nc1ccccc1C(F)(F)F)C1C(=O)OCC1c1ccc(C(F)(F)F)cc1 (racemic) [Compound 9]
Plant response rating, Wheat ([1]; 125 g ai/ha): 0 | Plant response rating, Wheat ([1]; 500 g ai/ha): 0 | Plant response rating, Flood, Barnyardgrass ([2]; 250 g ai/ha): 0 | Plant response rating, Flood, Barnyardgrass ([2]; 1000 g ai/ha): 0 | Plant response rating, Pigweed ([3]; 125 g ai/ha): 0 | Plant response rating, Pigweed ([3]; 500 g ai/ha): 0 | Plant response rating, Barnyardgrass ([4]; 125 g ai/ha): 0 | Plant response rating, Barnyardgrass ([4]; 500 g ai/ha): 0 | Plant response rating, Blackgrass ([5]; 125 g ai/ha): 0 | Plant response rating, Blackgrass ([5]; 500 g ai/ha): 0 | Plant response rating, Pigweed ([6]; 125 g ai/ha): 0 | Plant response rating, Pigweed ([6]; 500 g ai/ha): 0 | Plant response rating, Ragweed ([7]; 125 g ai/ha): 0 | Plant response rating, Ragweed ([7]; 500 g ai/ha): 0 | Plant response rating, Flood, Ducksalad ([8]; 250 g ai/ha): 30 | Plant response rating, Flood, Ducksalad ([8]; 1000 g ai/ha): 30 | Plant response rating, Kochia (kochia (Kochia scoparia) [9]; 125 g ai/ha): 0 | Plant response rating, Kochia (kochia (Kochia scoparia) [9]; 500 g ai/ha): 20 | Plant response rating, Ryegrass, Italian ([10]; 125 g ai/ha): 0 | Plant response rating, Ryegrass, Italian ([10]; 500 g ai/ha): 0 | Plant response rating, Kochia (kochia (Kochia scoparia) [11]; 125 g ai/ha): 0 | Plant response rating, Kochia (kochia (Kochia scoparia) [11]; 500 g ai/ha): 0 | Plant response rating, Flood, Sedge, Umbrella ([12]; 250 g ai/ha): 0 | Plant response rating, Flood, Sedge, Umbrella ([12]; 1000 g ai/ha): 0 | Plant response rating, Flood, Rice (rice (Oryza sativa); 250 g ai/ha): 0 | Plant response rating, Flood, Rice (rice (Oryza sativa); 1000 g ai/ha): 0 | Plant response rating, Ragweed ([13]; 125 g ai/ha): 0 | Plant response rating, Ragweed ([13]; 500 g ai/ha): 0 | Plant response rating, Galium ([14]; 125 g ai/ha): 0 | Plant response rating, Galium ([14]; 500 g ai/ha): 0 | Plant response rating, Barnyardgrass ([15]; 125 g ai/ha): 0 | Plant response rating, Barnyardgrass ([15]; 500 g ai/ha): 0 | Plant response rating, Ryegrass, Italian ([16]; 125 g ai/ha): 0 | Plant response rating, Ryegrass, Italian ([16]; 500 g ai/ha): 20 | Plant response rating, Foxtail, Giant ([17]; 125 g ai/ha): 30 | Plant response rating, Foxtail, Giant ([17]; 500 g ai/ha): 70 | Plant response rating, Foxtail, Giant ([18]; 125 g ai/ha): 30 | Plant response rating, Foxtail, Giant ([18]; 500 g ai/ha): 80 | Plant response rating, Corn (corn (Zea mays); 125 g ai/ha): 0 | Plant response rating, Corn (corn (Zea mays); 500 g ai/ha): 0

O=C(Nc1ccccc1F)C1C(=O)OCC1c1ccc(F)c(C(F)(F)F)c1 (racemic) [Compound 16]
Plant response rating, Wheat ([1]; 125 g ai/ha): 0 | Plant response rating, Wheat ([1]; 500 g ai/ha): 0 | Plant response rating, Flood, Barnyardgrass ([2]; 500 g ai/ha): 0 | Plant response rating, Pigweed ([3]; 125 g ai/ha): 0 | Plant response rating, Pigweed ([3]; 500 g ai/ha): 0 | Plant response rating, Barnyardgrass ([4]; 125 g ai/ha): 30 | Plant response rating, Barnyardgrass ([4]; 500 g ai/ha): 60 | Plant response rating, Blackgrass ([5]; 125 g ai/ha): 0 | Plant response rating, Blackgrass ([5]; 500 g ai/ha): 0 | Plant response rating, Pigweed ([6]; 125 g ai/ha): 0 | Plant response rating, Pigweed ([6]; 500 g ai/ha): 0 | Plant response rating, Ragweed ([7]; 125 g ai/ha): 0 | Plant response rating, Ragweed ([7]; 500 g ai/ha): 0 | Plant response rating, Flood, Ducksalad ([8]; 500 g ai/ha): 0 | Plant response rating, Kochia (kochia (Kochia scoparia) [9]; 125 g ai/ha): 0 | Plant response rating, Kochia (kochia (Kochia scoparia) [9]; 500 g ai/ha): 0 | Plant response rating, Ryegrass, Italian ([10]; 125 g ai/ha): 0 | Plant response rating, Ryegrass, Italian ([10]; 500 g ai/ha): 0 | Plant response rating, Kochia (kochia (Kochia scoparia) [11]; 125 g ai/ha): 0 | Plant response rating, Kochia (kochia (Kochia scoparia) [11]; 500 g ai/ha): 0 | Plant response rating, Flood, Sedge, Umbrella ([12]; 500 g ai/ha): 0 | Plant response rating, Flood, Rice (rice (Oryza sativa); 500 g ai/ha): 0 | Plant response rating, Ragweed ([13]; 125 g ai/ha): 0 | Plant response rating, Ragweed ([13]; 500 g ai/ha): 0 | Plant response rating, Galium ([14]; 125 g ai/ha): 0 | Plant response rating, Galium ([14]; 500 g ai/ha): 0 | Plant response rating, Barnyardgrass ([15]; 125 g ai/ha): 20 | Plant response rating, Barnyardgrass ([15]; 500 g ai/ha): 50 | Plant response rating, Ryegrass, Italian ([16]; 125 g ai/ha): 0 | Plant response rating, Ryegrass, Italian ([16]; 500 g ai/ha): 0 | Plant response rating, Foxtail, Giant ([17]; 125 g ai/ha): 20 | Plant response rating, Foxtail, Giant ([17]; 500 g ai/ha): 40 | Plant response rating, Foxtail, Giant ([18]; 125 g ai/ha): 50 | Plant response rating, Foxtail, Giant ([18]; 500 g ai/ha): 80 | Plant response rating, Corn (corn (Zea mays); 125 g ai/ha): 0 | Plant response rating, Corn (corn (Zea mays); 500 g ai/ha): 0
